{
  "source": "patent US6908734B2",
  "about": "“Sulfated CCR5 peptides for HIV-1 infection” (priority 2000, dated 2005)",
  "key": {"[1]": {"test_system": "gp120JR-FL/CD4-IgG2", "test": "CCR5 Nt peptide ELISA with gp120JR-FL/CD4-IgG2", "format": "binding, HIV-1", "details": "for Avidity for gp120JR-FL/CD4-IgG2 relative to 2-18 (fold lower): ELISA; for Binding of gp120JR-FL/CD4-IgG2 to peptide (ELISA): peptide 1 μg/ml on streptavidin plate", "description": "Streptavidin-coated ELISA plates (Pierce, Rockford, Ill.) were blocked with D-PBS/5% BSA for 2 hours at room temperature then washed three times with assay buffer (D-PBS/0.5% Tween 20/1% Fetal Bovine Serum/2% BSA). Plates were then contacted with sulfo- or phospho-peptides (1 μg/ml) for 1 hour at room temperature and washed three times with assay buffer. […] The plates were developed using the TMB substrate as described above."}, "[2]": {"target": "T1, gp120JR-FL/CD4-IgG2 binding to the sulfopeptide 2-18 (Homo sapiens, UniProt P51681)", "T1 construct": "a peptide spanning CCR5 residues 2-18 and containing sulfotyrosines in positions 10 and 14; host or cells: peptide synthetic", "test": "Competition ELISA: gp120JR-FL/CD4-IgG2 binding to sulfopeptide 2-18", "design": "species or system HIV-1", "details": "complex 1 nM, up to supraphysiologic concentrations", "method": "In a competition ELISA, peptides were captured onto the plates as described above. Inhibitor or assay buffer was added for 1 h prior to addition of gp120JR-FL/CD4-IgG2 complex (1 nM) for an additional h at room temperature. The assay was then completed as described above. Direct binding of anti-CCR5 murine MAbs to the peptides was examined as described above except that MAb was substituted for gp120/CD4-IgG2 complex and a goat anti-mouse HRP-coupled antibody was used for detection."}, "[3]": {"test_system": "PA10 binding to CCR5", "test": "Inhibition of anti-CCR5 MAb PA10 binding to L1.2-CCR5 cells", "format": "cell-based, mouse", "details": "MAb 50 nM, peptide 100 μM", "method": "L1.2-CCR5 cells (1×10^6) were incubated with anti-CCR5 MAb (50 nM)±peptide (100 μM). MAb binding was detected using a PE-labeled goat anti-mouse antibody (Caltag Laboratories, Burlingam, Calif.). The m.f.i value was measured by flow cytometry as described (Olson et al. J. Virol. 73:4145, 1999). MAb binding was calculated as above."}, "[4]": {"test_system": "gp120JR-FL/CD4-IgG2 complex binding to CCR5", "test": "Inhibition of gp120JR-FL/CD4-IgG2 complex binding to L1.2-CCR5+ cells (flow cytometry)", "format": "cell-based, HIV-1", "details": "gp120 100 nM, biotinylated CD4-IgG2 50 nM, different concentrations of peptide", "method": "A gp120/CD4 complex formed from monomeric gp120 (100 nM) and biotinylated CD4-IgG2 (50 nM) was added to 1×10^6 L1.2-CCR5^+ cells in the presence of different concentrations of peptide (Olson et al. J. Virol. 73:4145, 1999). CD4-IgG2 is tetrameric and therefore binds four molecules of gp120, which increases binding of the complex to CCR5 (Allaway et al. AIDS Res. Hum. Retroviruses 11:533, 1995). The mean fluorescence intensity (m.f.i.) was measured by flow cytometry after addition of phycoerythrin (PE)-labeled streptavidin (Becton Dickinson, San Jose, Calif.). Inhibition of gp120/CCR5 binding was calculated: […]."}, "[5]": {"test_system": "gp120JR-FL/sCD4", "test": "BIAcore: gp120JR-FL/sCD4 binding to immobilized biotinylated CCR5 Nt peptide", "design": "species or system HIV-1", "details": "protein 100 nM; 400 RU biotinylated peptide on streptavidin chip", "method": "(§1) Streptavidin-coated sensor chips (BIAcore AB, Sweden) were conditioned with five injections of regeneration solution (1M NaCl, 50 mM NaOH) and equilibrated with HBS-EP buffer (10 mM HEPES, 150 mM NaCl, […], 0.005% polysorbate 20) as recommended by the manufacturer. Biotinylated peptides were then immobilized on the chip by injection of peptide (100 nM) in HBS-EP buffer, followed by an injection of regeneration solution and equilibration with HBS-EP buffer. 400 resonance units (RU) of peptide were bound to the sensor chip surface. Solutions of the following proteins (100 nM) were passed over the sensor chip surface: gp120, sCD4, gp120/sCD4, PA8, PA10 and 2D7. […] Following injection of each solution the chip was regenerated and equilibrated as described above.\nBiotinylated peptide was attached to the streptavidin-coated gold surface of a sensor chip and solutions containing different gp120/sCD4 complexes were flowed over the immobilized peptide. Adsorption of the complex due to complex/peptide binding was detected by an increase in surface plasmon resonance signal (RU), which reports changes in the effective refraction index very near the gold surface of the sensor chip (Schuck Ann. Rev. Biophys Biomol Struct 26:541, 1997). […]\nBinding of gp120/CD4-IgG2 complex and MAbs to CCR5 Nt-based peptides was measured as previously described. […]"}, "[6]": {"test_system": "PA10", "test": "BIAcore: PA10 on immobilized peptide", "format": "binding, mouse", "details": "MAb 100 nM", "method": "as §1"}},
  "note": "Entries after “also recorded” stand apart in the source; their conditions may differ. Where no end group is shown, it is not given here. [ ]: non-standard residue; d: D form. The star is where a group is joined. Biotin = O=C1N[C@H]2[C@H](CS[C@H]2CCCCC(=O)*)N1; sY = N[C@@H](Cc1ccc(OS(=O)(=O)O)cc1)C(=O)O; pY = N[C@@H](Cc1ccc(OP(=O)(O)O)cc1)C(=O)O",
  "data": [
    {"molecule": "6-16: CCR5 residues 6-16, sulfotyrosines in positions 10 and 14, GAG spacer, biotinylated lysine (SSPI[sY]DIN[sY]YTGAG-{K(biotin)}; UniProt P51681 6-16, looked up, fragment)", "values": [
      {"measurement": "Avidity for gp120JR-FL/CD4-IgG2 relative to 2-18 (fold lower)", "setting": "[1]", "result": "at least ten-fold less avidly"}
    ]},
    {"molecule": "8-15: CCR5 residues 8-15, sulfotyrosines in positions 10 and 14, GAG spacer, biotinylated lysine (PI[sY]DIN[sY]YGAG-{K(biotin)}; UniProt P51681 8-15, looked up, fragment)", "values": [
      {"measurement": "Avidity for gp120JR-FL/CD4-IgG2 relative to 2-18 (fold lower)", "setting": "[1]", "result": "at least ten-fold less avidly"}
    ]},
    {"molecule": "10-18(11A/18A): peptide 10-18 with residues Asp-11 and Glu-18 substituted for alanines ([sY]AIN[sY]YTSA; not fully specified (C-terminus); UniProt P51681 10-18, looked up, variant D11A E18A)", "values": [
      {"measurement": "Binding of gp120JR-FL/CD4-IgG2 to peptide (ELISA)", "setting": "[1]", "result": "only weakly bound"}
    ]},
    {"molecule": "10-18: CCR5 residues 10-18 (YDINYYTSE), sulfotyrosines in positions 10 and 14, GAG spacer, biotinylated lysine ([sY]DIN[sY]YTSEGAG-{K(biotin)})", "values": [
      {"measurement": "Avidity for gp120JR-FL/CD4-IgG2 relative to 2-18 (fold lower)", "setting": "[1]", "result": "~3", "unit": "fold"},
      {"measurement": "Binding of gp120JR-FL/CD4-IgG2 to peptide (ELISA)", "setting": "[1]", "result": "significant binding; also recorded: avidly bound"}
    ]},
    {"molecule": "MIP-1α: CC-chemokine known to bind CCR5", "values": [
      {"measurement": "Inhibition of gp120JR-FL/CD4-IgG2 binding to the sulfopeptide 2-18", "setting": "[2]", "result": "not inhibited"}
    ]},
    {"molecule": "RANTES: CC-chemokine known to bind CCR5", "values": [
      {"measurement": "Inhibition of gp120JR-FL/CD4-IgG2 binding to the sulfopeptide 2-18", "setting": "[2]", "result": "not inhibited"}
    ]},
    {"molecule": "S-3/10/14: tyrosine-sulfated peptide spanning amino acids 2-18 of the CCR5 Nt, sulfo-tyrosines in positions 3, 10 and 14 (D[sY]QVSSPI[sY]DIN[sY]YTSE; UniProt P51681 2-18, looked up, fragment)", "values": [
      {"measurement": "Inhibition of PA10 binding to CCR5+ cells", "setting": "[3]", "result": "inhibited"},
      {"measurement": "Inhibition of gp120JR-FL/CD4-IgG2 binding to CCR5+ cells", "setting": "[4]", "result": "inhibited complex binding to the cells in a dose-dependent manner"}
    ]},
    {"molecule": "S-10/14: tyrosine-sulfated peptide spanning amino acids 2-18 of the CCR5 Nt, sulfo-tyrosines in positions 10 and 14 (DYQVSSPI[sY]DIN[sY]YTSE; UniProt P51681 2-18, looked up, fragment)", "values": [
      {"measurement": "Inhibition of gp120JR-FL/CD4-IgG2 binding to CCR5+ cells", "setting": "[4]", "result": "inhibited complex binding to the cells in a dose-dependent manner"}
    ]},
    {"molecule": "S-10: peptide spanning amino acids 2-18 of the CCR5 Nt, sulfo-tyrosine in position 10 (DYQVSSPI[sY]DINYYTSE; UniProt P51681 2-18, looked up, fragment)", "values": [
      {"measurement": "Inhibition of gp120JR-FL/CD4-IgG2 binding to CCR5+ cells", "setting": "[4]", "result": "no inhibitory activity"}
    ]},
    {"molecule": "S-14: peptide spanning amino acids 2-18 of the CCR5 Nt, sulfo-tyrosine in position 14 (DYQVSSPIYDIN[sY]YTSE; not fully specified; UniProt P51681 2-18, looked up, fragment)", "values": [
      {"measurement": "Inhibition of gp120JR-FL/CD4-IgG2 binding to CCR5+ cells", "setting": "[4]", "result": "no inhibitory activity"}
    ]},
    {"molecule": "TS-10/14: peptide spanning amino acids 10-14 of CCR5, two sulfo-tyrosine residues ([sY]DIN[sY])", "values": [
      {"measurement": "Inhibition of gp120JR-FL/CD4-IgG2 binding to CCR5+ cells", "setting": "[4]", "result": "did not inhibit"}
    ]},
    {"molecule": "bP-10/14: biotinylated version of P-10/14 with C-terminal GAG spacer preceding a biotinylated lysine; apparently as 2-18(P) (DYQVSSPI[pY]DIN[pY]YTSEGAGK(Biotin))", "values": [
      {"measurement": "Association of gp120JR-FL/sCD4 complex with immobilized peptide (RU)", "setting": "[5]", "result": "complete lack of association"}
    ]},
    {"molecule": "bS-10/14: biotinylated version of S-10/14 with C-terminal GAG spacer preceding a biotinylated lysine; apparently as 2-18 (DYQVSSPI[sY]DIN[sY]YTSEGAGK(Biotin))", "values": [
      {"measurement": "Association of gp120JR-FL/sCD4 complex with immobilized peptide (RU)", "setting": "[5]", "result": "significant increase in RU"},
      {"measurement": "Association of PA10 with immobilized peptide (BIAcore)", "setting": "[6]", "result": "associate"}
    ]},
    {"molecule": "MIP-1β: CC-chemokine known to bind CCR5 (protein, UniProt P13236 24-92, looked up) C-C motif chemokine 4: APMGSDPPTACCFSYTARKLPRNFVVDYYETSSLCSQPAVVFQTKRSKQVCADPSESWVQEYVYDLELN", "values": [
      {"measurement": "Inhibition of gp120JR-FL/CD4-IgG2 binding to the sulfopeptide 2-18", "setting": "[2]", "result": "not inhibited"}
    ]}
  ]
}
